From patent US20120077843A1, “MALIGNANT PRECURSOR CELLS FROM DUCTAL CARCINOMA IN SITU LESIONS” (George Mason Intellectual Properties, Inc., priority 2009, published 2012)
Like-named read-outs stand apart in the source and are kept apart here.

What was measured:
[1] = test system: DCIS malignant precursor cells; test: Ex vivo invasion of autologous breast stroma in organoid culture; type: cell-based, human; details: chloroquine phosphate treated organ culture
Method: (§1) Organoid ex vivo culture. Dissected breast ductal tissue was grown in 115 cm^2 TPP reclosable flasks (MidSci) or 10 cm^2 culture tubes (MidSci) in serum free DMEM/F12 medium supplemented with human recombinant EGF (10 ng/mL), insulin (10 μg/mL), streptomycin sulfate (100 μg/mL) and gentamicin sulfate (20 μg/mL), with or without 0.36% (v/v) murine Engelbreth-Holm-Swarm (EHS) derived, growth factor reduced, basement membrane extract (Trevigen, Gaithersburg, Md., USA) at 37° C. in a humidified 5.0% CO2 atmosphere. Medium was replaced three times per week. Cultures were maintained continuously for up to one year. Periodically, organoids were removed, under microscopic visualization, for propagation into new culture flasks or phenotypic and molecular analysis.
(§2) Pharmacological inhibition of autophagy. […] CO-containing medium was replaced three times per week for a period of 6 months.

[2] = test system: autophagy associated signal pathway proteins in DCIS spheroids; test: Cell signaling pathway mapping by reverse phase protein microarray (RPMA) of spheroids pre and post chloroquine; type: cell-based, human; details: for autophagy associated signal pathway proteins (Atg5, AKT, ERK, mTOR, IRS-1, p38 etc.) by RPMA: spheroids pre and post chloroquine phosphate 50 μM for 4 days, n=3
Method: as §2
(§3) Statistics. The Student T-test, two tailed with Welch's correction, was used to calculate the p-value, and to determine the statistical difference of epithelial outgrowth area before and after CQ treatment. P values <0.05 were considered significant. Standard deviation (SO) or standard error of the mean (SEM) was calculated for group comparisons. Wilcoxon rank sum was used to determine the differences between CQ treated and untreated groups for the reverse phase protein arrays. A p=0.1 was considered different for small sample sizes.

[3] = test system: DCIS organoid culture spheroids; test: Autophagosome lysosome imaging with LysoTracker Red; type: cell-based, human; details: chloroquine phosphate 50 μM for 2 weeks
human DCIS spheroids = details: for spheroid and 3-D structure formation (in words): DCIS organoid cultures, untreated up to 113 spheroids per duct organoid
Method: Tissue collection. […] Gross tissue pathology at the time of procurement was assessed by a board certified pathologist. Tissue containing DCIS lesions was excised for further macrodissection and rinsed in sterile phosphate buffered saline to remove sentinel lymph node dye. Using sterile technique, ductal tissue was dissected from surrounding breast adipose/fibrous tissue. The ductal tissue was rinsed in serum free DMEM/F 12 medium (Invitrogen, Carlsbad, Calif., USA) supplemented with human recombinant EGF (10 ng/mL; Cell Signaling Technology, Danvers, Mass., USA or Millipore, Billerica, Mass., USA), insulin (10 μg/mL; Roche, Indianapolis, Ind., USA), streptomycin sulfate (100 μg/mL; Sigma, St. Louis, Mo., USA) and gentamicin sulfate (20 μg/mL; Sigma) prior to distribution in culture flasks (MidSci, St. Louis, Mo., USA). Ductal tissue was allowed to attach to the culture surface and observed daily for cellular outgrowths. Non-adherent organoids were removed from the culture flask.
as §1, §2, §3

[4] = test system: DCIS organoid cell cultures; test: Histomorphology (H&E of FFPE sections) of chloroquine treated DCIS organoids; type: cell-based, human; details: for histology of intraductal epithelial cells / remaining adherent cells: chloroquine phosphate 50 μM, FIG. 14D
Method: as §2
Immunohistochemistry. Formalin fixed murine tissue or DCIS organoids were processed and paraffin embedded by commercial laboratories (AML Laboratories, Inc, Rosedale, Md. or Bi-Biomics, Nampa, Id.). Formalin fixed paraffin embedded (FFPE) tissue sections (5 μm or 1 μm thickness) mounted on positively charged glass slides were baked at 56° C. for 20 min., deparaffinized in xylene and rehydrated in a series of graded alcohols (100%, 95%, and 70%) with a final rinse in wash buffer (Dako, Carpinteria, Calif., USA). Antigen retrieval, when necessary, was performed with proteinase K or heat induced epitope retrieval. Immunostaining was performed on a Dako Autostainer with an Envision+HRP staining kit (Dako) per manufacturer's instructions. Stained tissue sections were counterstained with Hematoxylin (Dako), rinsed in distilled water and developed in Scott's Tap Water Substitute solution. Cover slips were applied using aqueous mounting medium (Faramount; Dako). Images were captured with an Olympus BX51 microscope using 4×, 10×, 20×, or 100× objectives.

[5] = listed as chloroquine phosphate

SMILES: CCN(CC)CCCC(C)Nc1ccnc2cc(Cl)ccc12 (stereo not shown) [chloroquine, N′-(7-chloroquinolin-4-yl)-N,N-diethyl-pentane-1,4-diamine]
- ex vivo invasion of autologous stroma [1]: suppressed ex vivo invasion
- apoptosis (elevation of cleaved PARP Asp214) ([2]; as early as 48 hours post treatment): induced apoptosis
- autophagy associated signal pathway proteins (Atg5, AKT, ERK, mTOR, IRS-1, p38 etc.) by RPMA ([2]; listed as CQ): suppressed
- autophagy associated signal pathway proteins (Atg5, AKT, ERK, mTOR, IRS-1, p38 etc.) by RPMA ([2]; listed as Chloroquine): markedly inhibited
- autophagy associated signal pathway proteins (Atg5, AKT, ERK, mTOR, IRS-1, p38 etc.) by RPMA [2, 5]: suppressed autophagy associated proteins
- spheroid integrity and LysoTracker Red distribution [3]: Dissociation of the spheroid, and diffuse accumulation of LysoTracker Red
- spheroid and 3-D structure formation (in words) (human DCIS spheroids): zero for the majority of explants
- spheroid and 3-D structure formation (in words) (human DCIS spheroids; listed as CQ): virtually abolished
- spheroid and 3-D structure formation (in words) (human DCIS spheroids; [5]): completely suppressed
- explants without any spheroids following chloroquine treatment (human DCIS spheroids; case 09-148, 14 explants): 12 out of 14
- spheroids observed after treatment (human DCIS spheroids; case 09-301, n=3, prior to treatment 20.5±7.8): no spheroids observed
- inhibition of spheroid outgrowth, CQ in combination with tamoxifen (human DCIS spheroids; cultured DCIS cells, combination with anti-estrogen compound (tamoxifen)): pronounced effect
- histology of invading DCIS cells within the organoid ([4]; 2 days post chloroquine treatment, 50 μM): Degeneration of the invading DCIS cells
- histology of intraductal epithelial cells / remaining adherent cells [4]: Cellular swelling and apparent apoptotic death
- histology of intraductal epithelial cells / remaining adherent cells ([4]; listed as CQ): lysosomal engorgement
- histology of DCIS organoid cultured with chloroquine long term ([4]; cultured in the presence of chloroquine for 6 months, 50 μM): complete absence of cellular outgrowths
